Measured values published in patent US10709769B2, “Use of endostatin peptides for the treatment of fibrosis” (University of Pittsburgh—Of the Commonwealth System of …, priority 2009, dated 2020).

Assays:
lysyl oxidase (LOX) = assay: LOX immunohistochemistry in lung sections of bleomycin-treated mice; format: in vivo, mouse; settings: lung sections of mice treated with bleomycin with or without E4
Source text: FIG. 12. […] Lung sections of mice treated with BLM with or without E4 were used in immunohistochemistry to detect LOX. The sections shown are control IgG, phosphate buffered saline, bleomycin and bleomycin followed by treatment with E4.
The results also evidenced that E4 exerts its anti-fibrotic effects via multiple pathways. E4 reduces levels of lysyl oxidase (LOX), and enzyme responsible for the cross-linking of collagen, elastin, and other extracellular matrix (ECM) molecules and thus the stabilization of the ECM.

ID1 = ID1 mRNA real-time PCR in primary human lung fibroblasts; format: cell-based
Protocol: FIG. 15. E4 reduces fibrosis in vitro by inducing expression of ID1, an inhibitor of TGF β, in primary human lung fibroblasts. Real-time PCR analysis was performed to determine the ID1 mRNA levels under the indicated conditions.

H-^133SYCETWRTEAPSATGQASSLLGGRLLGQSAASCHHAYIVLCIENSFMT^180-CONH2 (H-SYCETWRTEAPSATGQASSLLGGRLLGQSAASCHHAYIVLCIENSFMT-NH2; cysteine pairing not given here; UniProt P39060 1704-1751, looked up, fragment) [E4, amino acids 133-180 of human endostatin; differs from E3 by the presence of a carboxy-terminal amide]
levels of lysyl oxidase (LOX) (lysyl oxidase (LOX)): reduces | levels of inhibitor of differentiation (ID)-1 (ID1): increases
